Experiments:
Assay type in all cases: in vivo
Kochia scoparia [1] = assay: Post-emergence herbicidal efficacy at 320 g/ha, KCHSC; conditions: rated visually after about 3 weeks vs untreated controls, 100% = plants have died
Source text: (§1) Unwanted plants/weeds: • ABUTH: Abutilon theophrasti • ALOMY: Alopecurus myosuroides • AMARE: Amaranthus retroflexus • DIGSA: Digitaria sanguinalis • ECHCG: Echinochloa crus-galli • KCHSC: Kochia scoparia • LOLRI: Lolium rigidum • MATIN: Matricaria inodora • POAAN: Poa annua • POLCO: Polygonum convolvulus • SETVI: Setaria viridis • STEME: Stellaria media • VERPE: Veronica persica • VIOTR: Viola tricolor A. Post-Emergence Herbicidal Efficacy at 320 g/ha
(§2) Seeds of mono- and dicotyledonous weed plants were placed in plastic pots in sandy loam soil (doubly sown with in each case one species of mono- or dicotyledonous weed plants per pot), covered with soil and cultivated in a greenhouse under controlled growth conditions. 2 to 3 weeks after sowing, the test plants were treated at the one-leaf stage. The compounds of the invention, formulated in the form of wettable powders (WP) or as emulsion concentrates (EC), were applied to the green parts of the plants as aqueous suspension or emulsion with addition of 0.5% additive at a water application rate equivalent to 600 litres per hectare. After the test plants had been kept in the greenhouse under optimum growth conditions for about 3 weeks, the activity of the preparations was rated visually in comparison to untreated controls.
(§3) For example, 100% activity=the plants have died, 0% activity=like control plants.
(§4) Tables A1 to A10 below show the effects of selected compounds of the general formula (I) according to Table 1 on various harmful plants and at an application rate corresponding to 320 g/ha, which were obtained by the trial procedure specified above.

Amaranthus retroflexus [2] = assay: Post-emergence herbicidal efficacy at 320 g/ha, AMARE; conditions: rated visually after about 3 weeks vs untreated controls, 100% = plants have died
Source text: as §1, §2, §3, §4

Veronica persica [3] = assay: Post-emergence herbicidal efficacy at 320 g/ha, VERPE; conditions: rated visually after about 3 weeks vs untreated controls, 100% = plants have died
Source text: as §1, §2, §3, §4

Poa annua [4] = assay: Post-emergence herbicidal efficacy at 320 g/ha, POAAN; conditions: rated visually after about 3 weeks vs untreated controls, 100% = plants have died
Source text: as §1, §2, §3, §4

Stellaria media [5] = assay: Post-emergence herbicidal efficacy at 320 g/ha, STEME; conditions: rated visually after about 3 weeks vs untreated controls, 100% = plants have died
Source text: as §1, §2, §3, §4

Veronica persica [6] = assay: Pre-emergence herbicide efficacy at 320 g/ha, VERPE; conditions: scored visually after about 3 weeks vs untreated controls, 100% = plants have died
Source text: as §1
(§5) Seeds of mono- and dicotyledonous weed plants were placed in plastic pots in sandy loam soil (doubly sown with one species each of mono- or dicotyledonous weed plants per pot) and covered with soil. The compounds of the invention, formulated in the form of wettable powders (WP) or as emulsion concentrates (EC), were then applied to the surface of the covering soil as aqueous suspension or emulsion with addition of 0.5% additive at a water application rate of 600 litres per hectare (converted). After the treatment, the pots were placed in a greenhouse and kept under good growth conditions for the test plants. After about 3 weeks, the efficacy of the preparations was scored visually in comparison with untreated controls as percentages.
as §3
(§6) Tables C1 to C12 below show the effects of selected compounds of the general formula (I) according to Table 1 on various harmful plants and at an application rate corresponding to 320 g/ha, which were obtained by the trial procedure specified above.

Digitaria sanguinalis = assay: Pre-emergence herbicide efficacy at 320 g/ha, DIGSA; conditions: scored visually after about 3 weeks vs untreated controls, 100% = plants have died
Source text: as §1, §5, §3, §6

Echinochloa crus-galli = assay: Post-emergence herbicidal efficacy at 320 g/ha, ECHCG; conditions: rated visually after about 3 weeks vs untreated controls, 100% = plants have died
Source text: as §1, §2, §3, §4

Amaranthus retroflexus [7] = assay: Pre-emergence herbicide efficacy at 320 g/ha, AMARE; conditions: scored visually after about 3 weeks vs untreated controls, 100% = plants have died
Source text: as §1, §5, §3, §6

Setaria viridis = assay: Pre-emergence herbicide efficacy at 320 g/ha, SETVI; conditions: scored visually after about 3 weeks vs untreated controls, 100% = plants have died
Source text: as §1, §5, §3, §6

Abutilon theophrasti [8] = assay: Post-emergence herbicidal efficacy at 320 g/ha, ABUTH; conditions: rated visually after about 3 weeks vs untreated controls, 100% = plants have died
Source text: as §1, §2, §3, §4

Poa annua [9] = assay: Pre-emergence herbicide efficacy at 320 g/ha, POAAN; conditions: scored visually after about 3 weeks vs untreated controls, 100% = plants have died
Source text: as §1, §5, §3, §6

Veronica persica [10] = assay: Post-emergence herbicidal efficacy at 80 g/ha, VERPE; conditions: rated visually after about 3 weeks vs untreated controls, 100% = plants have died
Source text: as §1
(§7) Seeds of monocotyledonous and dicotyledonous weeds and crop plants were placed in sandy loam in plastic or organic planting pots, covered with soil and cultivated in a greenhouse under controlled growth conditions. 2 to 3 weeks after sowing, the test plants were treated at the one-leaf stage. The compounds of the invention, formulated in the form of wettable powders (WP) or as emulsion concentrates (EC), were then sprayed onto the green parts of the plants as aqueous suspension or emulsion with addition of 0.5% additive at a water application rate of 600 l/ha (converted). After the test plants had been kept in the greenhouse under optimum growth conditions for about 3 weeks, the activity of the preparations was rated visually in comparison to untreated controls. For example, 100% activity=the plants have died, 0% activity=like control plants.
(§8) Tables B1 to B11 below show the effects of selected compounds of the general formula (I) according to Table 1 on various harmful plants and an application rate corresponding to 80 g/ha, which were obtained by the experimental procedure mentioned above.

Amaranthus retroflexus [11] = assay: Post-emergence herbicidal efficacy at 80 g/ha, AMARE; conditions: rated visually after about 3 weeks vs untreated controls, 100% = plants have died
Source text: as §1, §7, §8

Kochia scoparia [12] = assay: Pre-emergence herbicide efficacy at 320 g/ha, KCHSC; conditions: scored visually after about 3 weeks vs untreated controls, 100% = plants have died
Source text: as §1, §5, §3, §6

Stellaria media [13] = assay: Pre-emergence herbicide efficacy at 320 g/ha, STEME; conditions: scored visually after about 3 weeks vs untreated controls, 100% = plants have died
Source text: as §1, §5, §3, §6

Abutilon theophrasti [14] = assay: Pre-emergence herbicide efficacy at 320 g/ha, ABUTH; conditions: scored visually after about 3 weeks vs untreated controls, 100% = plants have died
Source text: as §1, §5, §3, §6

Structure (SMILES) | Post-emergence efficacy at 320 g/ha against KCHSC in % (Kochia scoparia [1]) | Post-emergence efficacy at 320 g/ha against AMARE in % (Amaranthus retroflexus [2]) | Post-emergence efficacy at 320 g/ha against VERPE in % (Veronica persica [3]) | Post-emergence efficacy at 320 g/ha against POAAN in % (Poa annua [4]) | Post-emergence efficacy at 320 g/ha against STEME in % (Stellaria media [5]) | Pre-emergence efficacy at 320 g/ha against VERPE in % (Veronica persica [6]) | Pre-emergence efficacy at 320 g/ha against DIGSA in % (Digitaria sanguinalis) | Post-emergence efficacy at 320 g/ha against ECHCG in % (Echinochloa crus-galli) | Pre-emergence efficacy at 320 g/ha against AMARE in % (Amaranthus retroflexus [7]) | Pre-emergence efficacy at 320 g/ha against SETVI in % (Setaria viridis) | Post-emergence efficacy at 320 g/ha against ABUTH in % (Abutilon theophrasti [8]) | Pre-emergence efficacy at 320 g/ha against POAAN in % (Poa annua [9]) | Post-emergence efficacy at 80 g/ha against VERPE in % (Veronica persica [10]) | Post-emergence efficacy at 80 g/ha against AMARE in % (Amaranthus retroflexus [11]) | Pre-emergence efficacy at 320 g/ha against KCHSC in % (Kochia scoparia [12]) | Pre-emergence efficacy at 320 g/ha against STEME in % (Stellaria media [13]) | Pre-emergence efficacy at 320 g/ha against ABUTH in % (Abutilon theophrasti [14])
FC(F)(F)CCCCc1ccccc1Nc1ncc(Cl)cn1 [Example 1-2] | 90% | 100% | 100% | 90% | – | – | – | – | – | – | – | – | – | – | – | – | –
Cc1cccc(Nc2ncc(Cl)cn2)c1-n1cc(C(F)(F)F)cn1 [Example 1-49] | – | 90% | 90% | – | 90% | 100% | 90% | 90% | 100% | 100% | 90% | 100% | – | – | – | – | –
Fc1cnc(Nc2ccccc2-n2cc(C(F)(F)F)cn2)nc1 [Example 1-77] | – | – | – | – | – | – | – | – | – | – | – | – | 80% | – | – | – | –
FC(F)c1cc(-c2c(Cl)cccc2Nc2ccc(Cl)cn2)on1 [Example 1-74] | – | – | – | – | – | – | – | – | – | – | – | – | 80% | 80% | – | – | –
Fc1cccc(Nc2ncccn2)c1-c1cc(C(F)F)no1 [Example 1-35] | 100% | 100% | 100% | – | 100% | 90% | 90% | – | 100% | 90% | 100% | 100% | – | – | 100% | 100% | 100%

Source: patent US20250311727A1, “SUBSTITUTED 2-AMINOAZINES AND SALTS THEREOF, AND USE THEREOF AS HERBICIDAL ACTIVE SUBSTANCES” (BAYER AKTIENGESELLSCHAFT, priority 2022, published 2025)
